# Results from a melting point compilation (Tetko et al.; mined from patent text by program, amines drawn as free bases though some values may be those of a salt).
row,SMILES,melting point [°C]
1,O=C(NN1CCN(CCc2c[nH]c3ccccc23)CC1)c1ccc(O)cc1,190 to 192
2,Cc1cc(C)c(N2CCCc3c2[nH]n(C)c3=O)c(Cl)c1,95.9 to 99.9
3,Cc1cnc(C(=O)O)cc1C(c1cc(F)ccc1F)S(=O)(=O)c1ccc(Cl)cc1 (centres undefined),105 to 107
4,CC(C)(C)c1cc(C(=O)Nc2cccc(OCc3cccnc3)c2)ccc1O,104 to 107
5,O=[N+]([O-])c1ccc(O)c(Cl)c1Cl,148 to 150
6,CC(C)C/C(=C\F)CN1C(=O)c2ccccc2C1=O,57 to 60
7,CCS(=O)(=O)NC(=O)N1CC1C#N (centres undefined),70 to 73
8,CCc1nc(C(=O)c2ccc(Cl)cc2Cl)c(C(C)=O)n1C(CC)CC,63 to 64
9,Cc1cc2c(cc1O)C(C)(C)CC1(CC(C)(C)c3cc(OCCO)c(C)cc3O1)O2 (centres undefined),186 to 188
10,Cc1ccc(CCC(=O)O)cc1C,82
11,CS(=O)c1ccccc1S(=O)(=O)c1ccc(NC(=O)C(C)(O)C(F)(F)F)c(Cl)c1 (centres undefined),118 to 120
12,Cc1nc(N2CCCC(Cc3cc(F)ccc3F)C2=O)sc1C(=O)NCc1ccccc1 (centres undefined),144 to 145
13,CC(C)(C)OC(=O)NCc1cccc2c1CN(C1CCC(=O)NC1=O)C2=O (centres undefined),239 to 241
14,Cc1ccccc1N1CCN(CCC2CN(C)C(=O)O2)CC1 (centres undefined),55 to 57
15,CCCCCCCCCCC(O)CNC (centres undefined),56 to 57
16,O=S1(=O)c2cccc3cccc(c23)N1CCCN1CC=C(c2c[nH]c3ccccc23)CC1,226
17,CCOC(=O)C1=NNc2ccc(-c3ccc(Cl)cc3)cc2C1,254 to 256
18,CC1=C(C)C(=O)C(CN2C(=O)[C@H]3CCC[C@H]3N(C(=O)CN3C(=O)c4ccccc4C3=O)c3ccccc32)=C(C)C1=O (relative stereo),258 to 260

# The remaining lines, values ahead:
row,melting point [°C],SMILES
1,55 to 57,CCCCCCCCCCCCn1nnc(N(C(=O)Nc2ccc(F)cc2F)c2ccccc2)n1
2,157 to 159,O=C(Nc1nc(C(F)(F)F)c(I)s1)c1c(Cl)cccc1Cl
3,> 250,COc1ccc2cc(N)cc3c2c1C(=O)N(O)C3=O
4,206,Cn1cc(-c2ncc(OC3SCC(O)C(O)C3O)cc2F)cn1 (centres undefined)
5,218,CC1=C(C#N)C(c2cccc3nc(-c4ccccc4)sc23)C(C(=O)OC(C)C)=C(C)N1 (centres undefined)
6,135,Cc1ccc(S(=O)(=O)Oc2ccccc2NC(=O)c2cccc3[nH]ccc23)cc1
7,68 to 70,C#CCOC(=O)c1ccc2ccccc2c1
8,192 to 193,CCc1nc2cc(OC)c(OC)cc2c(-c2ccc(OC)c(OC)c2)c1CO
9,217 to 219,COc1cc(OC)c2c(=O)[nH]c(-c3cccc(-c4ccc(C(=O)N(C)C)cc4)n3)nc2c1
10,105 to 107,O=C(NNc1ccccc1Cl)c1ccccc1F
11,73 to 75,O=C(COc1cccnc1)C12CC3CC(CC(C3)C1)C2
12,221,Oc1cccc(C=C2c3ccc(Cl)cc3CCc3cccnc32)c1
13,182,Cn1c(Sc2cc(C(F)(F)F)ccc2C#N)n[nH]c1=O
14,210 to 211,N#Cc1cc(-c2nccs2)nn1-c1ccc(NC(=O)c2ccncc2F)cc1
15,157 to 158,NC(=O)CNC(=O)c1cc(-c2cccc3cc(Cc4cc(F)cc(Cl)c4)sc23)ccn1
16,272 to 274,Cn1c2cc(Cl)ccc2c2c(Cl)nc(-c3ccncc3)nc21
17,197,CC(C)(Oc1ccc(CC(=O)Nc2ccc(C(F)(F)F)cc2)cc1)C(=O)O
18,138 to 140,Cc1cc(Oc2ccc(S(C)(=O)=O)nc2)ccc1[N+](=O)[O-]
19,232 to 234,Nc1ncc(-c2ccc(F)c(F)c2)nc1C(=O)Nc1cccnc1
20,95 to 96,CCN(CC)CCOc1ccc2cc3ccc(OCCN(CC)CC)c(CO)c3nc2c1CO
21,236,Nc1nc(N)c(C(=O)NC2=NCCN2)nc1Cl
